Legend:
rat [1] = conditions: Fertility (Segment I), sprague dawley, Oral, Gavage/Intubation, dose end: 0 mating
rat [2] = conditions: Multigenerational reproductive toxicity study, sprague dawley, Oral, Gavage/Intubation, dose end: 2 generation
rat [3] = conditions: Combined chronic toxicity/carcinogenicity; fischer; Oral; Gavage/Intubation; dose end: 2 year; group: systemic; systemic / in life observation / body weight / body weight + systemic / pathology microscopic / kidney / nephropathy + systemic / pathology …
rat [4] = conditions: Subchronic oral toxicity in rodents, fischer, Gavage/Intubation, dose end: 6 month, group: systemic
rat [5] = conditions: Subchronic oral toxicity in rodents, wistar, Water, dose end: 90 day
mouse [6] = conditions: Combined chronic toxicity/carcinogenicity, b6c3f1, Oral, Gavage/Intubation, dose end: 2 year, group: systemic
mouse [7] = conditions: Multigenerational reproductive toxicity study, other, Oral, Gavage/Intubation, dose end: 21 PND
mouse [8] = conditions: Subchronic oral toxicity in rodents, b6c3f1, Gavage/Intubation, dose end: 6 month, group: systemic
[9] = group: maternal, reproductive / reproductive performance / implantations / implantations
[10] = group: parental, systemic / clinical chemistry / luteinizing hormone (lh) / luteinizing hormone (lh) + systemic / clinical chemistry / progesterone / …
[11] = group: parental, systemic / in life observation / body weight / body weight gain
[12] = group: offspring, developmental / offspring survival late / viability index / viability index + systemic / in life observation / body weight / offspring (pup…
[13] = group: offspring, systemic / in life observation / body weight / offspring (pup) weight + systemic / organ weight / liver / absolute + systemic / organ weight…
[14] = group: parental, systemic / in life observation / body weight / body weight + systemic / in life observation / mortality / mortality + systemic / organ …
[15] = group: parental, systemic / in life observation / mortality / mortality + systemic / organ weight / kidney / absolute + systemic / organ weight / kidney / …
[16] = group: reproductive, reproductive / reproductive performance / fertility / fertility + reproductive / offspring survival early / litter size / litter size + …
[17] = group: reproductive, reproductive / reproductive performance / fertility / fertility + reproductive / reproductive performance / implantations / implantations + …
[18] = systemic / in life observation / body weight / body weight + systemic / clinical chemistry / alanine aminotransferase (alt/sgpt) / alanine …
[19] = group: maternal, reproductive / reproductive performance / fertility / fertility + reproductive / reproductive performance / mating / mating
[20] = group: systemic, systemic / organ weight / epididymis / absolute + systemic / organ weight / prostate / absolute + systemic / organ weight / seminal vesicle…
[21] = group: systemic, systemic / pathology gross / sperm measure / sperm count + systemic / pathology gross / sperm measure / sperm motility
[22] = systemic / pathology microscopic / kidney / nephropathy + systemic / pathology microscopic / kidney / vacuolization cytoplasmic
[23] = systemic / pathology microscopic / kidney / nephropathy + systemic / pathology microscopic / kidney / vacuolization cytoplasmic + systemic…
[24] = group: offspring, developmental / offspring survival late / viability index / viability index
[25] = group: parental, systemic / organ weight / kidney / relative to body weight
[26] = group: parental, systemic / organ weight / kidney / relative to body weight + systemic / in life observation / body weight / body weight
[27] = group: reproductive, reproductive / reproductive performance / fertility / fertility
[28] = group: reproductive, reproductive / reproductive performance / fertility / fertility + reproductive / offspring survival early / live fetuses / live fetuses
[29] = systemic / pathology microscopic / kidney / vacuolization cytoplasmic + systemic / in life observation / body weight / body weight + …

Q: What does the source list for `[Cl][Hg][Cl]` [Mercuric chloride]?
A: LEL (rat [1]; [9]): 2 mg/kg/day; LOAEL (rat [1]; [9]): > 2 mg/kg/day; NEL (rat [1]; [9]): 1 mg/kg/day; NOAEL (rat [1]; [9]): ≥ 2 mg/kg/day; LOAEL (rat [1]; [10]): > 2 mg/kg/day; NOAEL (rat [1]; [10]): ≥ 2 mg/kg/day; LEL (rat [1]; [11]): 1 mg/kg/day; NEL (rat [1]; [11]): < 1 mg/kg/day; LOAEL (rat [2]; [12]): > 2.5 mg/kg/day; NOAEL (rat [2]; [12]): ≥ 2.5 mg/kg/day; LEL (rat [2]; [13]): 0.5 mg/kg/day; NEL (rat [2]; [13]): < 0.5 mg/kg/day; LOAEL (rat [2]; [14]): > 2.5 mg/kg/day; NOAEL (rat [2]; [14]): ≥ 2.5 mg/kg/day; LEL (rat [2]; [15]): 0.5 mg/kg/day; NEL (rat [2]; [15]): < 0.5 mg/kg/day; LEL (rat [2]; [16]): 0.5 mg/kg/day; NEL (rat [2]; [16]): < 0.5 mg/kg/day; LOAEL (rat [2]; [17]): > 2.5 mg/kg/day; NOAEL (rat [2]; [17]): ≥ 2.5 mg/kg/day; LEL (rat [3]): 2.5 mg/kg/day; LOAEL (rat [3]): 2.5 mg/kg/day; NEL (rat [3]): < 2.5 mg/kg/day; NOAEL (rat [3]): < 2.5 mg/kg/day; LEL (rat [4]; [18]): 0.312 mg/kg/day; NEL (rat [4]; [18]): < 0.312 mg/kg/day; NOAEL (rat [4]; systemic / in life observation / body weight / body weight + systemic / pathology microscopic / kidney / nephropathy + systemic / organ …): 2.5 mg/kg/day; LOAEL (rat [4]; systemic / pathology microscopic / kidney / nephropathy): 5 mg/kg/day; LEL (rat [5]; [19]): 5 mg/kg/day; LOAEL (rat [5]; [19]): > 5 mg/kg/day; NEL (rat [5]; [19]): 2.5 mg/kg/day; NOAEL (rat [5]; [19]): ≥ 5 mg/kg/day; LOAEL (rat [5]; [20]): > 5 mg/kg/day; NOAEL (rat [5]; [20]): ≥ 5 mg/kg/day; LEL (rat [5]; [21]): 2.5 mg/kg/day; NEL (rat [5]; [21]): < 2.5 mg/kg/day; LOAEL (mouse [6]; [22]): 5 mg/kg/day; NOAEL (mouse [6]; [22]): < 5 mg/kg/day; LEL (mouse [6]; [23]): 5 mg/kg/day; NEL (mouse [6]; [23]): < 5 mg/kg/day; LEL (mouse [7]; [24]): 1 mg/kg/day; LOAEL (mouse [7]; [24]): > 1 mg/kg/day; NEL (mouse [7]; [24]): 0.5 mg/kg/day; NOAEL (mouse [7]; [24]): ≥ 1 mg/kg/day; LEL (mouse [7]; [25]): 0.25 mg/kg/day; NEL (mouse [7]; [25]): < 0.25 mg/kg/day; LOAEL (mouse [7]; [26]): > 1 mg/kg/day; NOAEL (mouse [7]; [26]): ≥ 1 mg/kg/day; LEL (mouse [7]; [27]): 0.25 mg/kg/day; NEL (mouse [7]; [27]): < 0.25 mg/kg/day; LOAEL (mouse [7]; [28]): > 1 mg/kg/day; NOAEL (mouse [7]; [28]): ≥ 1 mg/kg/day; LOAEL (mouse [8]; systemic / pathology microscopic / kidney / vacuolization cytoplasmic): 10 mg/kg/day; NEL (mouse [8]; [29]): 2.5 mg/kg/day; NOAEL (mouse [8]; [29]): 5 mg/kg/day; LEL (mouse [8]; systemic / pathology microscopic / kidney / vacuolization cytoplasmic + systemic / organ weight / kidney / absolute): 5 mg/kg/day

Reference: EPA's ToxRefDB 2
